Reference: patent publication US20090018111A1, “Novel Antimicrobial Medicament” (priority 2004, published 2009)
Where two headings read alike, the source gives them in different places.

Tests used:
Assay in all cases: Sensitivity test (agar dilution)
S. aureus 209P = assay type: cell-based, Staphylococcus aureus; details: Staphylococcus aureus, 209P, S. aureus 209P
Description: (§1) The antibacterial activities were tested against various 18 bacteria (27 standard strains) which are representative bacteria caused clinically infectious disease (Staphylococcus aureus 3 strains, Staphylococcus epidermidis 1 strain, Micrococcus luteus 1 strain, Streptococcus pyogenes 1 strain, Enterococcus faecalis 1 strain, Enterococcus faecium 1 strain, Bacillus subtilis 1 strain, Escherichia coli 3 strains, Klebsiella pneumoniae 1 strain, Proteus mirabilis 1 strain, Proteus vulgaris 2 strains, Pseudomonas aeruginosa 3 strains, Serratia marcescens 2 strains, Enterobacter aerogenes 1 strain, Stenotrophomonas maltophilia 1 strain, Enterobacter cloacae 1 strain, Citrobacter freundii 1 strain, Moraxella catarrhalis 2 strains).
(§2) According to the standard method of Japan Chemotherapeutic Society (Chemotherapy, vol. […], p 76-79 (1981)) the test was carried out using the agar dilution method. After dissolving test samples in distilled water, agar medium containing the test samples was prepared in such a manner that the final concentration became twice serial dilution by pouring serially diluted combination drug solution or a single drug solution into agar medium. As agar medium was used Mueller Hinton Agar medium (MHA). Then, each strain was cultivated over night at 37° C. in an incubator and suspended in buffered saline solution with gelatin (BSG) in the concentration of about 10^6 CFU/ml. The suspension (about 5 μl) containing test strains was inoculated to the medium containing the test samples by Micro Planter.
(§3) When the sample is subjected to sensitivity test, this mixed solution was diluted by twice serial dilution method.
(§4) Furthermore, when the drug is solely used, each test sample was used as it is, and diluted by twice serial dilution method from the maximum concentration to the minimum concentration.
(§5) FIC index based on MIC value was calculated. […] Namely, when FIC index calculated by the following formula is equal or less than 1, the enhanced effect of the combination drug in said ratio is considered as positive. When FIC index is over 1, the enhanced effect of the combination drug in said ratio is considered as negative.
(§6) Formula of FIC index: FIC index=(MIC of Drug A in combination/MIC of Drug A alone)+(MIC of Drug B in combination/MIC of Drug B alone) N.C. in tables means being not calculated.

[1] = system: S. aureus MS94088 (hetero-MRSA); assay type: cell-based, Staphylococcus aureus; details: Staphylococcus aureus, MRSA, S. aureus MS94088 (hetero-MRSA)
Description: as §1, §2, §3, §4, §5, §6

[2] = system: S. aureus SP-7928 (homo-MRSA); assay type: cell-based, Staphylococcus aureus; details: Staphylococcus aureus, MRSA, S. aureus SP-7928 (homo-MRSA)
Description: as §1, §2, §3, §4, §5, §6

M. luteus ATCC9341 = assay type: cell-based, Micrococcus luteus; details: Micrococcus luteus, M. luteus ATCC9341
Description: as §1, §2, §3, §4, §5, §6

K. pneumoniae ATCC10031 = assay type: cell-based, Klebsiella pneumoniae; details: Klebsiella pneumoniae, K. pneumoniae ATCC10031
Description: as §1, §2, §3, §4, §5, §6

E. aerogenes ATCC13048 = assay type: cell-based, Enterobacter aerogenes; details: Klebsiella aerogenes, E. aerogenes ATCC13048
Description: as §1, §2, §3, §4, §5, §6

C. freundii GN346 = assay type: cell-based, Citrobacter freundii; details: Citrobacter freundii, C. freundii GN346
Description: as §1, §2, §3, §4, §5, §6

P. aeruginosa IFO3451 = assay type: cell-based, Pseudomonas aeruginosa; details: Pseudomonas aeruginosa, P. aeruginosa IFO3451
Description: as §1, §2, §3, §4, §5, §6

P. aeruginosa TL-2666 = assay type: cell-based, Pseudomonas aeruginosa; details: Pseudomonas aeruginosa, P. aeruginosa TL-2666
Description: as §1, §2, §3, §4, §5, §6

P. aeruginosa TL-2667 = assay type: cell-based, Pseudomonas aeruginosa; details: Pseudomonas aeruginosa, P. aeruginosa TL-2667
Description: as §1, §2, §3, §4, §5, §6

S. maltophilia IID1275 = assay type: cell-based, Stenotrophomonas maltophilia; details: Stenotrophomonas maltophilia, S. maltophilia IID1275
Description: as §1, §2, §3, §4, §5, §6

M. catarrhalis ATCC25238 = assay type: cell-based, Moraxella catarrhalis; details: Moraxella catarrhalis, M. catarrhalis ATCC25238
Description: as §1, §2, §3, §4, §5, §6

M. catarrhalis ATCC8176 = assay type: cell-based, Moraxella catarrhalis; details: Moraxella catarrhalis, M. catarrhalis ATCC8176
Description: as §1, §2, §3, §4, §5, §6

[3] = Concomitant (CAZ:SM = 1:1), read-out: MIC concomitant
[4] = drug alone, read-out: MIC alone
[5] = ATCC9341, drug alone, read-out: MIC alone
[6] = ATCC10031, drug alone, read-out: MIC alone
[7] = ATCC13048, drug alone, read-out: MIC alone
[8] = GN346, drug alone, read-out: MIC alone
[9] = IFO3451, drug alone, read-out: MIC alone
[10] = TL2666, drug alone, read-out: MIC alone
[11] = TL2667, drug alone, read-out: MIC alone
[12] = IID1275, drug alone, read-out: MIC alone
[13] = ATCC25238, drug alone, read-out: MIC alone
[14] = ATCC8176, drug alone, read-out: MIC alone
[15] = Concomitant (DRPM:SM = 1:1), read-out: MIC concomitant

For `CC(C)(O/N=C(\C(=O)N[C@@H]1C(=O)N2C(C(=O)[O-])=C(C[n+]3ccccc3)CS[C@H]12)c1csc(N)n1)C(=O)O` [CAZ, ceftazidime], the MIC (S. aureus 209P; [3]) was 0.004 µg/mL, the MIC (S. aureus 209P; [4]) was 8 µg/mL and the MIC [1, 3] was 0.25 µg/mL. For the same compound, the MIC [1, 4] was > 32 µg/mL, the MIC [2, 3] was 1 µg/mL and the MIC [2, 4] was > 32 µg/mL. For the same compound, the MIC (M. luteus ATCC9341; ATCC9341, Concomitant (CAZ:SM = 1:1), read-out: MIC concomitant) was ≤ 0.002 µg/mL, the MIC (M. luteus ATCC9341; [5]) was 1 µg/mL and the MIC (K. pneumoniae ATCC10031; ATCC10031, Concomitant (CAZ:SM = 1:1), read-out: MIC concomitant) was 0.008 µg/mL. It also gave an MIC (K. pneumoniae ATCC10031; [6]) of 0.031 µg/mL, an MIC (E. aerogenes ATCC13048; ATCC13048, Concomitant (CAZ:SM = 1:1), read-out: MIC concomitant) of 8 µg/mL and an MIC (E. aerogenes ATCC13048; [7]) of 0.5 µg/mL. The MIC (C. freundii GN346; GN346, Concomitant (CAZ:SM = 1:1), read-out: MIC concomitant) was 8 µg/mL, the MIC (C. freundii GN346; [8]) was 1 µg/mL and the MIC (P. aeruginosa IFO3451; IFO3451, Concomitant (CAZ:SM = 1:1), read-out: MIC concomitant) was 2 µg/mL. For the same compound, the MIC (P. aeruginosa IFO3451; [9]) was 1 µg/mL, the MIC (P. aeruginosa TL-2666; TL2666, Concomitant (CAZ:SM = 1:1), read-out: MIC concomitant) was 8 µg/mL and the MIC (P. aeruginosa TL-2666; [10]) was 0.5 µg/mL. The MIC (P. aeruginosa TL-2667; TL2667, Concomitant (CAZ:SM = 1:1), read-out: MIC concomitant) was 8 µg/mL, the MIC (P. aeruginosa TL-2667; [11]) was 1 µg/mL and the MIC (S. maltophilia IID1275; IID1275, Concomitant (CAZ:SM = 1:1), read-out: MIC concomitant) was > 32 µg/mL. The MIC (S. maltophilia IID1275; [12]) was > 32 µg/mL, the MIC (M. catarrhalis ATCC25238; ATCC25238, Concomitant (CAZ:SM = 1:1), read-out: MIC concomitant) was ≤ 0.002 µg/mL and the MIC (M. catarrhalis ATCC25238; [13]) was 0.016 µg/mL. For the same compound, the MIC (M. catarrhalis ATCC8176; ATCC8176, Concomitant (CAZ:SM = 1:1), read-out: MIC concomitant) was ≤ 0.002 µg/mL and the MIC (M. catarrhalis ATCC8176; [14]) was 0.016 µg/mL.
With `C[C@@H](O)[C@H]1C(=O)N2C(C(=O)O)=C(S[C@@H]3CN[C@H](CNS(N)(=O)=O)C3)[C@H](C)[C@H]12` [DRPM, doripenem] the MIC (S. aureus 209P; [15]) was 0.004 µg/mL, the MIC (S. aureus 209P; [4]) was 0.016 µg/mL and the MIC [1, 15] was 0.25 µg/mL. For the same compound, the MIC [1, 4] was 2 µg/mL, the MIC [2, 15] was 1 µg/mL and the MIC [2, 4] was 32 µg/mL. For the same compound, the MIC (M. luteus ATCC9341; ATCC9341, Concomitant (DRPM:SM = 1:1), read-out: MIC concomitant) was ≤ 0.002 µg/mL, the MIC (M. luteus ATCC9341; [5]) was 0.031 µg/mL and the MIC (K. pneumoniae ATCC10031; ATCC10031, Concomitant (DRPM:SM = 1:1), read-out: MIC concomitant) was 0.008 µg/mL. It also gave an MIC (K. pneumoniae ATCC10031; [6]) of 0.016 µg/mL, an MIC (E. aerogenes ATCC13048; ATCC13048, Concomitant (DRPM:SM = 1:1), read-out: MIC concomitant) of 0.031 µg/mL and an MIC (E. aerogenes ATCC13048; [7]) of 0.031 µg/mL. For the same compound, the MIC (C. freundii GN346; GN346, Concomitant (DRPM:SM = 1:1), read-out: MIC concomitant) was 0.063 µg/mL, the MIC (C. freundii GN346; [8]) was 0.063 µg/mL and the MIC (P. aeruginosa IFO3451; IFO3451, Concomitant (DRPM:SM = 1:1), read-out: MIC concomitant) was 0.25 µg/mL. It also gave an MIC (P. aeruginosa IFO3451; [9]) of 0.5 µg/mL, an MIC (P. aeruginosa TL-2666; TL2666, Concomitant (DRPM:SM = 1:1), read-out: MIC concomitant) of 1 µg/mL and an MIC (P. aeruginosa TL-2666; [10]) of 1 µg/mL. For the same compound, the MIC (P. aeruginosa TL-2667; TL2667, Concomitant (DRPM:SM = 1:1), read-out: MIC concomitant) was 2 µg/mL, the MIC (P. aeruginosa TL-2667; [11]) was 2 µg/mL and the MIC (S. maltophilia IID1275; IID1275, Concomitant (DRPM:SM = 1:1), read-out: MIC concomitant) was > 32 µg/mL. The MIC (S. maltophilia IID1275; [12]) was > 32 µg/mL, the MIC (M. catarrhalis ATCC25238; ATCC25238, Concomitant (DRPM:SM = 1:1), read-out: MIC concomitant) was ≤ 0.002 µg/mL and the MIC (M. catarrhalis ATCC25238; [13]) was 0.004 µg/mL. For the same compound, the MIC (M. catarrhalis ATCC8176; ATCC8176, Concomitant (DRPM:SM = 1:1), read-out: MIC concomitant) was ≤ 0.002 µg/mL and the MIC (M. catarrhalis ATCC8176; [14]) was 0.008 µg/mL.
